Earlier results as cited in patent US9226893B2, “Method for storing silica-based material, package produced with the method and use of package for packaging of silica-based products” (DelSiTech Oy, priority 2006, dated 2016).

lysozyme: Lysozyme released from sol-gel derived silica gel (literature, Wilson et al.)
activity of released lysozyme (gel let to dry and age simultaneously, within few weeks): substantially reduced
amount of biologically active lysozyme relative to total amount of released lysozyme (silica gel which had not dried, with or without protective agent): ~100%
